Measured values published in article PMC4593031, “Azobenzene Modified Imidacloprid Derivatives as Photoswitchable Insecticides: Steering Molecular Activity in a Controllable Manner” (Scientific Reports, 2015).
Values joined by “and” are separate entries in the source; they are usually repeats but may differ in a detail not shown here. Equal entries are not always repeated. Where two headings read alike, the source gives them in different places.

Tests used:
[1] = UV/Vis absorption of photoisomers; format: physicochemical; details: for λmax n-π* (cis): cis isomer; for λmax π-π* (trans): trans isomer
Excerpt: The photoswitchable behaviors of AMIs at room temperature were characterized by UV/Vis absorption, NMR spectroscopy and HPLC studies. […] Upon irradiation with ultraviolet (365 nm), a gradual intensity decrease at 327 nm and increase at 410–500 nm was detected corresponding to the π–π* and n–π* transition band, respectively (Fig. 3B). The reverse spectral changes were observed upon irradiation at 436 nm (data not shown). All the other compounds gave the similar spectral changes when illuminated with light. The proportions of E/Z isomer at the photostationary states before and after irradiation were determined by HPLC analysis (Table 1). Most of the compounds could produced more than 80% cis isomers upon irradiation. […] The photoisomerization of AMI-10 was further identified by ^1H NMR spectroscopy with the notable appearance of two double peaks at δ 7.25 and 6.85, respectively (Supplementary Fig. S1 online).
Varian Cary 100 UV-vis spectrophotometer was used for obtaining absorption (UV-Vis) spectra. The solutions of compounds were irradiated with a UV lamp (365 nm). The cis to trans photoisomeriation were performed with a light-emitting diode (blue light, 450 nm). The corresponding UV-Vis spectrums were collected in supplmentary files. The photostationary states were determined by high performance liquid chromatography (HPLC) measurements and the trans/cis ratios were calculated at the isosbestic points.

[2] = test system: house fly (Musca domestica); assay: Insecticidal test for house fly by intrathoracic injection; format: in vivo; details: for Musca domestica in vivo LD50: intrathoracic injection, mortality at 24 h
Experimental: The ability of azobenzene to regulate insecticidal activities remains unexplored. To better understand the activity changes induced by light, the efficacy before and after irradiation was tested by leaf-dip method for cowpea aphid (Aphis craccivora) and intrathoracic injection against house fly (Musca domestica)[46][47]. Against cowpea aphid, all the isomers had low activity and no significant difference was observed between two photo isomers (Supplementary Table S1 online). We attribute this observation to the poor solubility at the testing concentrations.
Thus, injection of chemicals into house fly was employed to evaluate their intrinsic activity (Table 2). House fly is a most commonly used indicator for both in vitro and in vivo insecticidal activity. Replacement of chloropyridinyl in IMI with AB leads to a deleterious effect on in vivo activity to house fly as exemplified by analogues AMI-1, 2 and 5 with LD50 values of more than 10 μg/g irrespective of irradiation or not. […] No obvious difference was observed between the trans and cis form of AMI-9.
House fly adults were anesthetized with carbon dioxide for 10 min and then were treated with the AMIs dissolved in distilled water or 10% DMSO aqueous solution by intrathoracic injection (0.4 μL for each fly). Twenty flies were treated for each dosage with duplicate samples. The mortality rates were counted twenty-four hours after treatment. Each treatment had three repetitions and the data subjected to probit analysis.

house fly brain nAChR = assay: nAChR binding in vitro, competitive inhibition of [3H]NMI binding; details: 1 nM [3H]NMI, house fly head membranes, read-out: Musca domestica in vitro IC50, [3H]NMI
Experimental: Tritium labeled nitromethylene analogue of IMI ([^3H]NMI) is a unique reporter for monitoring nAChR binding not only in vitro but also in vivo due to its extremely high binding potency. Here, the in vitro interaction of AMIs with house fly brain nAChR was measured by competitive inhibition of [^3H]NMI binding (Table 2). Photoisomers of AMI-1, 2, 5, and 6 had very poor ability to displacing [^3H]NMI binding (IC50 > 2000 nM) leading to difficulty for difference judgement. […] A 4-fold difference was achieved on AMI-4 and 10 upon photoirradiation. Compounds AMI-9 or AMI-10 have some similarities with the bis-IMI derivatives disclosed by Kagabu et al.[49][50][51]. […] Among various spacers investigated, the heptamethylene or furan-2,5-dimethylene was the optimal bridge. The N-PhN=NPh-N lengths for trans and cis isomers of AMI-9 or AMI-10 are about 12.29 Ǻ and 6.82 Ǻ or 12.59 Ǻ and 8.14 Ǻ, respectively. While for the bis-IMI linked by heptamethylene, the distance is 9.96 Ǻ, close to that of cis-AMI-10. The shorter or longer distance of the linker may decrease the activity. Furthermore, the lack of heteroatom in the AB linker which is important for stabilizing the interaction with the receptor further attenuated the activity.
House fly heads were collected after the fly adults frozen with liquid nitrogen were broken into body parts. Then the heads were homogenized in 0.1 mM EDTA, 0.32 M sucrose and 100 mM sodium phosphate (pH 7.4). The homogenate was treated by filtering through four layers of 64-μm mesh nylon screen. After centrifuging at 500 g for 30 min, the supernatant was collected and again filtered through using the method above. After centrifuging at 25,000 g for 60 min at 4 °C, the pellet was resuspended in binding buffer (mixture of 50 mM sodium chloride and 10 mM sodium phosphate, pH 7.4). These brain membranes were used fresh or stored for up to several weeks at −80 °C. Then 1 nM [^3H]NMI, varying concentrations of neonicotinoids and 300–500 μg membrane protein in a final volume of 500 μL was incubated at 22 °C for 60 min. The reaction mixture was filtered through Whatman GF/B glass-fiber filters prewetted by binding buffer using a Brandel M-24R Harvester (Gaithersburg, MD) to quantitate the bound [^3H]NMI, followed by two rinses each with binding buffer (5 mL) and final liquid scintillation. Nonspecific binding was determined with unlabeled NMI (20 μM). Specific binding was about 80–90% of total binding. The percentage inhibition was determined from two (compounds AMI-1, AMI-2, AMI-5, AMI-6 and azobenzene whose activities were extremely low) or three separate experiments each with triplicate samples. Half maximal inhibitory concentration (IC50) were determined by nonlinear regression analysis for logarithm of inhibitor concentration versus probit percentage inhibition.

[3] = Photoswitching cycles / constant irradiation (fatigue resistance); format: physicochemical; details: multiple cycles of photoisomerization or constant irradiation at 365 nm for 1 h

Compound | λmax n-π* (cis) [1] [nm] | λmax π-π* (trans) [1] [nm] | Musca domestica in vivo LD50 ([2]; irradiated) | Musca domestica in vivo LD50 ([2]; nonirradiated) | IC50 (house fly brain nAChR; irradiated) [nM] | IC50 (house fly brain nAChR; nonirradiated) [nM] | photo bleaching or photo-oxidation [3] | Musca domestica in vivo LD50 ([2]; irradiated, listed as 5) | Musca domestica in vivo LD50 ([2]; nonirradiated, listed as 5) | poisoning sign in house fly ([2]; under the tested concentrations)
O=[N+]([O-])N=C1N(Cc2ccc(N=Nc3ccc(CN4CCN(Cc5ccc(Cl)nc5)C4=N[N+](=O)[O-])cc3)cc2)CCN1Cc1ccc(Cl)nc1 [AMI-10] | 434 | 325 | 0.5 µg/g and 0.5 ± 0.08 µg/g | 2.8 µg/g and 2.8 ± 0.4 µg/g | 112 ± 13 | 466 ± 55 | No photo bleaching or photo-oxidation could be observed |  |  | 
O=[N+]([O-])/N=C1/N(Cc2ccc(/N=N/c3ccccc3)cc2)CCN1Cc1ccc(Cl)nc1 [AMI-4] | 433 | 322 | 9.2 ± 1.6 µg/g | 6.5 ± 1.0 µg/g | 1220 ± 98 | 818 ± 92 |  |  |  | 
O=[N+]([O-])NC1=NCCN1Cc1ccc(Cl)nc1 [IMI, imidacloprid] |  |  | 0.05 ± 0.01 µg/g | 0.05 ± 0.01 µg/g | 28.8 ± 4 | 28.8 ± 4 |  |  |  | 
O=[N+]([O-])/N=C1\N(Cc2ccc(Cl)nc2)CCN1Cc1cccc(/N=N/c2cccc(CN3CCN(Cc4ccc(Cl)nc4)/C3=N\[N+](=O)[O-])c2)c1 [AMI-9] | 429 | 319 | 3.0 ± 0.6 µg/g | 5.1 ± 0.8 µg/g | 1340 ± 154 | 1160 ± 141 |  |  |  | 
O=[N+]([O-])/N=C1\N(Cc2ccc(Cl)nc2)CCN1Cc1cccc(/N=N/c2ccccc2)c1 [AMI-3] | 431 | 317 | 4.4 ± 0.7 µg/g | 3.9 ± 0.5 µg/g | 1140 ± 106 | 250 ± 22 |  |  |  | 
(Z)-2-(nitromethylene)-1-(2-((E)-phenyldiazenyl)benzyl)imidazolidine [AMI-5] | 436 | 320 | >10 µg/g | >10 µg/g | > 2000 | > 2000 |  | more than 10 μg/g | more than 10 μg/g | 
c1ccc(/N=N/c2ccccc2)cc1 [azobenzene] |  |  | >10 µg/g | >10 µg/g | > 2000 | > 2000 |  |  |  | no significant poisoning sign was detected
(E)-1-(3-(((E)-2-(nitromethylene)imidazolidin-1-yl)methyl)phenyl)-2-(3-(((Z)-2-(nitromethylene)imidazolidin-1-yl)methyl)phenyl)diazene [AMI-7] | 432 | 321 | 5.3 ± 1.0 µg/g | 7.9 ± 1.1 µg/g | 1730 ± 135 | 1860 ± 151 |  |  |  | 
2-chloro-5-(((E)-2-(nitromethylene)-3-(2-((E)-phenyldiazenyl)benzyl)imidazolidin-1-yl)methyl)pyridine [AMI-6] | 433 | 322 | >10 µg/g | >10 µg/g | > 2000 | > 2000 |  |  |  | 
